Experiments:
Assay type in all cases: in vivo
Conditions in all cases: treatment dosage 320 g/ha
[1] = tested on: beet; assay: Test Example 3: soil treatment, effect on crop; f: beet
Method in brief: (§1)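 Crop and weed responses were judged three weeks after a uniform surface spray of the water-diluted emulsion at the given g/ha rate. Seeds sat beneath about 1.5 cm of sterilized diluvial soil, and boxes stood in a greenhouse at 25 to 30° C.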

[2] = tested on: fig-leafed goosefoot; assay: Test Example 4: weedkilling efficacy by foliar treatment; M: fig-leafed goosefoot
Method in brief: (§2)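 Seeds are spot-sown into sterilized diluvial soil and covered with about 1.5 cm of soil. After 14 days' greenhouse growth at 25 to 30° C, plants are sprayed on stems and leaves with diluted emulsion at the stated g/ha rate, then scored at 3 weeks.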

[3] = tested on: wild oat; assay: Test Example 3: weedkilling efficacy through soil treatment; G: wild oat
Method in brief: as §1

[4] = tested on: soybean; assay: Test Example 4: foliar treatment, effect on crop; d: soybean
Method in brief: as §2

[5] = tested on: Indian mallow; assay: Test Example 4: weedkilling efficacy by foliar treatment; K: Indian mallow
Method in brief: as §2

[6] = tested on: barnyard grass; assay: Test Example 3: weedkilling efficacy through soil treatment; F: barnyard grass
Method in brief: as §1

[7] = tested on: directly sown rice; assay: Test Example 4: foliar treatment, effect on crop; b: directly sown rice
Method in brief: as §2

[8] = tested on: green foxtail; assay: Test Example 3: weedkilling efficacy through soil treatment; E: green foxtail
Method in brief: as §1

[9] = tested on: directly sown rice; assay: Test Example 3: soil treatment, effect on crop; b: directly sown rice
Method in brief: as §1

[10] = tested on: bulrush; assay: Test Example 1: weedkilling efficacy, preemergent weed treatment in the submerged state; B: bulrush
Method in brief: (§3)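 Alluvial soil in Wagner pots flooded to 4 cm; barnyard grass, bulrush and oval-leafed pondweed seeds sown, then 2.5-leaf rice seedlings transplanted. Same day, emulsified compound diluted in water to set g/ha dosages and applied to water surface; greenhouse 25–30 °C, effect scored by criteria after 3 weeks.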

[11] = tested on: chickweed; assay: Test Example 3: weedkilling efficacy through soil treatment; N: chickweed
Method in brief: as §1

[12] = tested on: wild oat; assay: Test Example 4: weedkilling efficacy by foliar treatment; G: wild oat
Method in brief: as §2

[13] = tested on: catchweed; assay: Test Example 4: weedkilling efficacy by foliar treatment; O: catchweed
Method in brief: as §2

[14] = tested on: barnyard grass; assay: Test Example 1: weedkilling efficacy, preemergent weed treatment in the submerged state; A: barnyard grass
Method in brief: as §3

[15] = tested on: wheat; assay: Test Example 4: foliar treatment, effect on crop; e: wheat
Method in brief: as §2

[16] = tested on: fig-leafed goosefoot; assay: Test Example 3: weedkilling efficacy through soil treatment; M: fig-leafed goosefoot
Method in brief: as §1

[17] = tested on: redroot pigweed; assay: Test Example 3: weedkilling efficacy through soil treatment; L: redroot pigweed
Method in brief: as §1

[18] = tested on: corn; assay: Test Example 4: foliar treatment, effect on crop; c: corn
Method in brief: as §2

[19] = tested on: soybean; assay: Test Example 3: soil treatment, effect on crop; d: soybean
Method in brief: as §1

[20] = tested on: wheat; assay: Test Example 3: soil treatment, effect on crop; e: wheat
Method in brief: as §1

[21] = tested on: redroot pigweed; assay: Test Example 4: weedkilling efficacy by foliar treatment; L: redroot pigweed
Method in brief: as §2

[22] = tested on: birds-eye speedwell; assay: Test Example 4: weedkilling efficacy by foliar treatment; p: birds-eye speedwell
Method in brief: as §2

[23] = tested on: black-grass; assay: Test Example 3: weedkilling efficacy through soil treatment; H: black-grass
Method in brief: as §1

[24] = tested on: common wind-grass; assay: Test Example 4: weedkilling efficacy by foliar treatment; J: common wind-grass
Method in brief: as §2

[25] = tested on: beet; assay: Test Example 4: foliar treatment, effect on crop; f: beet
Method in brief: as §2

[26] = tested on: crabgrass; assay: Test Example 4: weedkilling efficacy by foliar treatment; D: crabgrass
Method in brief: as §2

[27] = tested on: green foxtail; assay: Test Example 4: weedkilling efficacy by foliar treatment; E: green foxtail
Method in brief: as §2

[28] = tested on: chickweed; assay: Test Example 4: weedkilling efficacy by foliar treatment; N: chickweed
Method in brief: as §2

[29] = tested on: Indian mallow; assay: Test Example 3: weedkilling efficacy through soil treatment; K: Indian mallow
Method in brief: as §1

[30] = tested on: oval-leafed pondweed; assay: Test Example 2: weedkilling efficacy, growth period weed treatment in the submerged state; C: oval-leafed pondweed
Method in brief: (§4)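 First, alluvial soil in pots is flooded to 4 cm and mixed seed is sown. Next, plants grow in a greenhouse at 25 to 30° C until the 1-2 leaf stage. Then diluted emulsion is applied onto the water surface at the given g/ha rate, and injury is assessed after 3 weeks.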

[31] = tested on: transplanted rice; assay: Test Example 1: preemergent weed treatment in the submerged state, effect on crop; a: transplanted rice
Method in brief: as §3

[32] = tested on: barnyard grass; assay: Test Example 4: weedkilling efficacy by foliar treatment; F: barnyard grass
Method in brief: as §2

[33] = tested on: corn; assay: Test Example 3: soil treatment, effect on crop; c: corn
Method in brief: as §1

[34] = tested on: oval-leafed pondweed; assay: Test Example 1: weedkilling efficacy, preemergent weed treatment in the submerged state; C: oval-leafed pondweed
Method in brief: as §3

[35] = tested on: bulrush; assay: Test Example 2: weedkilling efficacy, growth period weed treatment in the submerged state; B: bulrush
Method in brief: as §4

[36] = tested on: rapeseed; assay: Test Example 3: soil treatment, effect on crop; g: rapeseed
Method in brief: as §1

[37] = tested on: Italian ryegrass; assay: Test Example 4: weedkilling efficacy by foliar treatment; I: Italian ryegrass
Method in brief: as §2

[38] = tested on: black-grass; assay: Test Example 4: weedkilling efficacy by foliar treatment; H: black-grass
Method in brief: as §2

[39] = tested on: rapeseed; assay: Test Example 4: foliar treatment, effect on crop; g: rapeseed
Method in brief: as §2

[40] = tested on: barnyard grass; assay: Test Example 2: weedkilling efficacy, growth period weed treatment in the submerged state; A: barnyard grass
Method in brief: as §4

[41] = tested on: crabgrass; assay: Test Example 3: weedkilling efficacy through soil treatment; D: crabgrass
Method in brief: as §1

[42] = tested on: Italian ryegrass; assay: Test Example 3: weedkilling efficacy through soil treatment; I: Italian ryegrass
Method in brief: as §1

[43] = tested on: common wind-grass; assay: Test Example 3: weedkilling efficacy through soil treatment; J: common wind-grass
Method in brief: as §1

What does the source list for `CC1=C(c2cccnc2F)C(=O)N(C(C)(C)C(=O)Nc2cc(C(F)(F)F)cc(F)n2)CO1` [B-2-13]?
f (beet) effect on crop grade [1]: 4 (weed kill ratio 70% or more, less than 90%); M (fig-leafed goosefoot) weedkilling efficacy grade [2]: 4 (weed kill ratio 70% or more, less than 90%); G (wild oat) weedkilling efficacy grade [3]: 5 (weed kill ratio 90% or more, (practically complete withering)); d (soybean) effect on crop grade [4]: 4 (weed kill ratio 70% or more, less than 90%); K (Indian mallow) weedkilling efficacy grade [5]: 5 (weed kill ratio 90% or more, (practically complete withering)); F (barnyard grass) weedkilling efficacy grade [6]: 5 (weed kill ratio 90% or more, (practically complete withering)); b (directly sown rice) effect on crop grade [7]: 3 (weed kill ratio 40% or more, less than 70%); E (green foxtail) weedkilling efficacy grade [8]: 5 (weed kill ratio 90% or more, (practically complete withering)); b (directly sown rice) effect on crop grade [9]: 5 (weed kill ratio 90% or more, (practically complete withering)); B (bulrush) weedkilling efficacy grade [10]: 5 (weed kill ratio 90% or more, (practically complete withering)); N (chickweed) weedkilling efficacy grade [11]: 3 (weed kill ratio 40% or more, less than 70%); G (wild oat) weedkilling efficacy grade [12]: 3 (weed kill ratio 40% or more, less than 70%); O (catchweed) weedkilling efficacy grade [13]: 5 (weed kill ratio 90% or more, (practically complete withering)); A (barnyard grass) weedkilling efficacy grade [14]: 5 (weed kill ratio 90% or more, (practically complete withering)); e (wheat) effect on crop grade [15]: 0 (weed kill ratio 5% or less (practically no effect)); M (fig-leafed goosefoot) weedkilling efficacy grade [16]: 3 (weed kill ratio 40% or more, less than 70%); L (redroot pigweed) weedkilling efficacy grade [17]: 4 (weed kill ratio 70% or more, less than 90%); c (corn) effect on crop grade [18]: 4 (weed kill ratio 70% or more, less than 90%); d (soybean) effect on crop grade [19]: 0 (weed kill ratio 5% or less (practically no effect)); e (wheat) effect on crop grade [20]: 0 (weed kill ratio 5% or less (practically no effect)); L (redroot pigweed) weedkilling efficacy grade [21]: 4 (weed kill ratio 70% or more, less than 90%); P (birds-eye speedwell) weedkilling efficacy grade [22]: 5 (weed kill ratio 90% or more, (practically complete withering)); H (black-grass) weedkilling efficacy grade [23]: 5 (weed kill ratio 90% or more, (practically complete withering)); J (common wind-grass) weedkilling efficacy grade [24]: 5 (weed kill ratio 90% or more, (practically complete withering)); f (beet) effect on crop grade [25]: 4 (weed kill ratio 70% or more, less than 90%); D (crabgrass) weedkilling efficacy grade [26]: 5 (weed kill ratio 90% or more, (practically complete withering)); E (green foxtail) weedkilling efficacy grade [27]: 5 (weed kill ratio 90% or more, (practically complete withering)); N (chickweed) weedkilling efficacy grade [28]: 4 (weed kill ratio 70% or more, less than 90%); K (Indian mallow) weedkilling efficacy grade [29]: 0 (weed kill ratio 5% or less (practically no effect)); C (oval-leafed pondweed) weedkilling efficacy grade [30]: 5 (weed kill ratio 90% or more, (practically complete withering)); a (transplanted rice) effect on crop grade [31]: 1 (weed kill ratio 5% or more, less than 20%); F (barnyard grass) weedkilling efficacy grade [32]: 5 (weed kill ratio 90% or more, (practically complete withering)); c (corn) effect on crop grade [33]: 1 (weed kill ratio 5% or more, less than 20%); C (oval-leafed pondweed) weedkilling efficacy grade [34]: 5 (weed kill ratio 90% or more, (practically complete withering)); B (bulrush) weedkilling efficacy grade [35]: 5 (weed kill ratio 90% or more, (practically complete withering)); g (rapeseed) effect on crop grade [36]: 4 (weed kill ratio 70% or more, less than 90%); I (Italian ryegrass) weedkilling efficacy grade [37]: 5 (weed kill ratio 90% or more, (practically complete withering)); H (black-grass) weedkilling efficacy grade [38]: 5 (weed kill ratio 90% or more, (practically complete withering)); g (rapeseed) effect on crop grade [39]: 4 (weed kill ratio 70% or more, less than 90%); A (barnyard grass) weedkilling efficacy grade [40]: 5 (weed kill ratio 90% or more, (practically complete withering)); D (crabgrass) weedkilling efficacy grade [41]: 5 (weed kill ratio 90% or more, (practically complete withering)); I (Italian ryegrass) weedkilling efficacy grade [42]: 5 (weed kill ratio 90% or more, (practically complete withering)); J (common wind-grass) weedkilling efficacy grade [43]: 5 (weed kill ratio 90% or more, (practically complete withering))

From patent US9738634B2, “Heterocyclic amide compound and herbicide” (SYNGENTA PARTICIPATIONS AG, priority 2013, dated 2017)
